Measured values from ChEMBL document CHEMBL6134851, “Comparative Study on Covalent and Noncovalent Endogenous Albumin-Binding β-Glucuronidase-Activated SN38 Prodrugs for Antitumor Efficacy” (J Med Chem, 2025).

Tests used:
Assay type in all cases: organism-based
[1] = Toxicity in female BALB/cA nude mouse assessed as appearance of fibrosis in heart at 38 mg/kg, iv measured after 24 hrs by H and E staining based analysis; settings: in vivo
[2] = Toxicity in female BALB/cA nude mouse assessed as animal fatality at 38 mg/kg, iv administered once a week for 35 days; settings: in vivo, 840 h, time 35 day
[3] = Toxicity in female BALB/cA nude mouse assessed as appearance of inflammatory lesions in heart at 38 mg/kg, iv administered once a week for 35 days by H and E staining based analysis; settings: in vivo, 840 h, time 35 day
[4] = Toxicity in female BALB/cA nude mouse assessed as appearance of inflammatory lesions in liver at 38 mg/kg, iv administered once a week for 35 days by H and E staining based analysis; settings: in vivo, 840 h, time 35 day
[5] = Toxicity in female BALB/cA nude mouse assessed as appearance of inflammatory lesions in lung at 38 mg/kg, iv administered once a week for 35 days by H and E staining based analysis; settings: in vivo, 840 h, time 35 day
[6] = Toxicity in female BALB/cA nude mouse assessed as fibrotic changes in tumor at 38 mg/kg, iv administered once a week for 35 days by H and E staining based analysis; settings: in vivo, 840 h, time 35 day
[7] = Toxicity in female BALB/cA nude mouse assessed as fibrotic changes in tumor at 25 mg/kg, iv administered once a week for 35 days by H and E staining based analysis; settings: in vivo, 840 h, time 35 day
[8] = Toxicity in female BALB/cA nude mouse assessed as fibrotic changes in spleen at 25 mg/kg, iv administered once a week for 35 days by H and E staining based analysis; settings: in vivo, 840 h, time 35 day

Structure (SMILES)	Activity [1]	Activity [2]	Activity [3]	Activity [4]	Activity [5]	Activity [6]	Activity [7]	Activity [8]
CCc1c2c(nc3ccc(OCc4ccc(O[C@@H]5O[C@H](C(=O)O)[C@@H](O)[C@H](O)[C@H]5O)c(NC(=O)CCNC(=O)COCCOCCNC(=O)COCCOCCNC(=O)CC[C@H](NC(=O)CCCCCCCCCCCCCCCCC(=O)O)C(=O)O)c4)cc13)-c1cc3c(c(=O)n1C2)COC(=O)[C@]3(O)CC	Toxic	Non-toxic	Non-toxic	Non-toxic	Non-toxic	Non-toxic	–	–
CCc1c2c(nc3ccc(OCc4ccc(O[C@@H]5O[C@H](C(=O)O)[C@@H](O)[C@H](O)[C@H]5O)c(NC(=O)CCNC(=O)CCCCCN5C(=O)C=CC5=O)c4)cc13)-c1cc3c(c(=O)n1C2)COC(=O)[C@]3(O)CC	–	–	–	–	–	–	Non-toxic	Non-toxic
